ChEMBL document CHEMBL4152250, “Antibacterial and anti-TB tat-peptidomimetics with improved efficacy and half-life” (Eur J Med Chem, 2018)
Converted amounts (≈) assume the structure as drawn. Numbered stars: 1 amine (or outer) side, 2 acyl side, 3 side chain; on linkers, the order of the positions; unused ones are H or OH. Square brackets hold non-standard residues; d marks the D form. Peptide text beside a SMILES is read from it. Pro(N-(CH2)3Gua,cis-4-NH-) = N=C(N)NCCCN1C[C@@H](N[*:1])C[C@H]1C(=O)[*:2]; Pro(cis-4-guanidino) = NC(N)=N[C@@H]1CN[C@H](C(=O)O)C1; X1 = NCCCN1C[C@@H](N[*:1])C[C@H]1C(=O)[*:2]; βAla = NCCC(=O)O

Legend:
[1] = test system: Mycobacterium tuberculosis; assay: Antitubercular activity against dormant stage of Mycobacterium tuberculosis H37Ra ATCC 25177 after 12 days by XRMA; format: functional, organism-based; conditions: H37Ra ATCC 25177, 288 h
Staphylococcus aureus = assay: Antibacterial activity against Staphylococcus aureus NCIM 2010 after 12 hrs by serial dilution method; format: functional, organism-based; conditions: NCIM 2010, 12 h
Escherichia coli = assay: Antibacterial activity against Escherichia coli NCIM 2688 after 8 hrs by serial dilution method; format: functional, organism-based; conditions: NCIM 2688, 8 h
[2] = test system: Mycobacterium tuberculosis; assay: Antitubercular activity against active stage of Mycobacterium tuberculosis H37Ra ATCC 25177 after 8 days by XRMA; format: functional, organism-based; conditions: H37Ra ATCC 25177, 192 h
Bacillus subtilis = assay: Antibacterial activity against Bacillus subtilis NCIM 2079 after 12 hrs by serial dilution method; format: functional, organism-based; conditions: NCIM 2079, 12 h
Pseudomonas aeruginosa = assay: Antibacterial activity against Pseudomonas aeruginosa NCIM 2036 after 8 hrs by serial dilution method; format: functional, organism-based; conditions: NCIM 2036, 8 h
[3] = Cytotoxicity against human HeLa cells assessed as cell viability at 1 to 10 uM after 24 hrs by MTT assay relative to control; format: cell-based; conditions: read-out: Activity
Enterobacter sp. = assay: Antibacterial activity against Enterobacter sp. NCIM 5392 after 8 hrs by serial dilution method; format: functional, organism-based; conditions: NCIM 5392, 8 h
[4] = test system: Staphylococcus epidermidis; assay: Antibacterial activity against Staphylococcus epidermidis NCIM 5270 after 12 hrs by serial dilution method; format: functional, organism-based; conditions: NCIM 5270, 12 h

SMILES	IC50 [1]	MIC [1]	IC50 (Staphylococcus aureus)	MIC (Staphylococcus aureus)	IC50 (Escherichia coli)	MIC (Escherichia coli)	IC50 [2]	MIC [2]	IC50 (Bacillus subtilis)	MIC (Bacillus subtilis)	IC50 (Pseudomonas aeruginosa)	MIC (Pseudomonas aeruginosa)	viability at 24 h, up to 10 µM [3]	IC50 (Enterobacter sp.)	MIC (Enterobacter sp.)	IC50 [4]	MIC [4]
CC(=O)N[C@@H](Cc1ccccc1)C(=O)NCC(=O)N[C@@H](CCCNC(=N)N)C(=O)N[C@@H](CCCCN)C(=O)N[C@@H](CCCCN)C(=O)N[C@@H](CCCNC(=N)N)C(=O)N[C@@H](CCCNC(=N)N)C(=O)N[C@@H](CCC(N)=O)C(=O)N[C@@H](CCCNC(=N)N)C(=O)N[C@@H](CCCNC(=N)N)C(=O)N1C[C@@H](NC(=N)N)C[C@H]1C(=O)NCCC(N)=O (Ac-FGRKKRRQRR[Pro(cis-4-guanidino)][βAla]-NH2)	910 nM	23.9 µM (≈ 39.5 µg/mL)	86 nM	10.9 µM (≈ 18.1 µg/mL)	92 nM	6.73 µM (≈ 11.1 µg/mL)	9700 nM	32.1 µM (≈ 53.1 µg/mL)	149 nM	7.96 µM (≈ 13.2 µg/mL)	70 nM	10.3 µM (≈ 17 µg/mL)	≥ 80%	–	–	–	–
CC(=O)N[C@@H](Cc1ccccc1)C(=O)NCC(=O)N[C@@H](CCCNC(=N)N)C(=O)N[C@@H](CCCCN)C(=O)N[C@@H](CCCCN)C(=O)N[C@H]1C[C@@H](C(=O)N[C@@H](CCCNC(=N)N)C(=O)N[C@@H](CCC(N)=O)C(=O)N[C@@H](CCCNC(=N)N)C(=O)N[C@@H](CCCNC(=N)N)C(=O)N[C@@H](CCCNC(=N)N)C(=O)NCCC(N)=O)N(CCCNC(=N)N)C1 (Ac-FGRKK[Pro(N-(CH2)3Gua,cis-4-NH-)]RQRRR[βAla]-NH2)	1280 nM	13.8 µM (≈ 23.6 µg/mL)	23 nM	5.25 µM (≈ 8.98 µg/mL)	18 nM	7.25 µM (≈ 12.4 µg/mL)	3000 nM	20.1 µM (≈ 34.4 µg/mL)	45 nM	14.1 µM (≈ 24.1 µg/mL)	5 nM	2.67 µM (≈ 4.57 µg/mL)	≥ 80%	14 nM	4.7 µM (≈ 8.04 µg/mL)	14 nM	8.95 µM (≈ 15.3 µg/mL)
CC(=O)N[C@@H](Cc1ccccc1)C(=O)NCC(=O)N[C@@H](CCCNC(=N)N)C(=O)N[C@@H](CCCCN)C(=O)N[C@@H](CCCCN)C(=O)N1C[C@@H](NC(=N)N)C[C@H]1C(=O)N[C@@H](CCCNC(=N)N)C(=O)N[C@@H](CCC(N)=O)C(=O)N[C@@H](CCCNC(=N)N)C(=O)N[C@@H](CCCNC(=N)N)C(=O)N[C@@H](CCCNC(=N)N)C(=O)NCCC(N)=O (Ac-FGRKK[Pro(cis-4-guanidino)]RQRRR[βAla]-NH2)	2510 nM	33.9 µM (≈ 56.1 µg/mL)	104 nM	8.65 µM (≈ 14.3 µg/mL)	92 nM	13.5 µM (≈ 22.3 µg/mL)	4450 nM	28.6 µM (≈ 47.3 µg/mL)	344 nM	29.9 µM (≈ 49.4 µg/mL)	47 nM	6.53 µM (≈ 10.8 µg/mL)	≥ 80%	–	–	–	–
CC(=O)N[C@@H](Cc1ccccc1)C(=O)NCC(=O)N[C@H]1C[C@@H](C(=O)N[C@@H](CCCCN)C(=O)N[C@@H](CCCCN)C(=O)N[C@@H](CCCNC(=N)N)C(=O)N[C@H]2C[C@@H](C(=O)N[C@@H](CCC(N)=O)C(=O)N[C@@H](CCCNC(=N)N)C(=O)N[C@@H](CCCNC(=N)N)C(=O)N[C@H]3C[C@@H](C(=O)NCCC(N)=O)N(CCCNC(=N)N)C3)N(CCCNC(=N)N)C2)N(CCCNC(=N)N)C1 (Ac-FG[Pro(N-(CH2)3Gua,cis-4-NH-)]KKR[Pro(N-(CH2)3Gua,cis-4-NH-)]QRR[Pro(N-(CH2)3Gua,cis-4-NH-)][βAla]-NH2)	2200 nM	22.8 µM (≈ 41.5 µg/mL)	10.4 nM	9.05 µM (≈ 16.5 µg/mL)	18 nM	7.58 µM (≈ 13.8 µg/mL)	8400 nM	26.1 µM (≈ 47.5 µg/mL)	10.4 nM	2.81 µM (≈ 5.12 µg/mL)	9.8 nM	1.82 µM (≈ 3.31 µg/mL)	≥ 80%	24 nM	8.01 µM (≈ 14.6 µg/mL)	6.5 nM	9.44 µM (≈ 17.2 µg/mL)
CC(=O)N[C@@H](Cc1ccccc1)C(=O)NCC(=O)N1C[C@@H](NC(=N)N)C[C@H]1C(=O)N[C@@H](CCCCN)C(=O)N[C@@H](CCCCN)C(=O)N[C@@H](CCCNC(=N)N)C(=O)N1C[C@@H](NC(=N)N)C[C@H]1C(=O)N[C@@H](CCC(N)=O)C(=O)N[C@@H](CCCNC(=N)N)C(=O)N[C@@H](CCCNC(=N)N)C(=O)N1C[C@@H](NC(=N)N)C[C@H]1C(=O)NCCC(N)=O (Ac-FG[Pro(cis-4-guanidino)]KKR[Pro(cis-4-guanidino)]QRR[Pro(cis-4-guanidino)][βAla]-NH2)	500 nM	21.1 µM (≈ 34.8 µg/mL)	227 nM	20.5 µM (≈ 33.9 µg/mL)	105 nM	11.8 µM (≈ 19.5 µg/mL)	10600 nM	36.3 µM (≈ 59.9 µg/mL)	135 nM	13.2 µM (≈ 21.8 µg/mL)	92 nM	12.6 µM (≈ 20.8 µg/mL)	≥ 80%	–	–	–	–
CC(=O)N[C@@H](Cc1ccccc1)C(=O)NCC(=O)N1C[C@@H](NC(=N)N)C[C@H]1C(=O)N[C@@H](CCCCN)C(=O)N[C@@H](CCCCN)C(=O)N[C@@H](CCCNC(=N)N)C(=O)N1C[C@@H](NC(=N)N)C[C@H]1C(=O)N[C@@H](CCC(N)=O)C(=O)N1C[C@@H](NC(=N)N)C[C@H]1C(=O)N[C@@H](CCCNC(=N)N)C(=O)N1C[C@@H](NC(=N)N)C[C@H]1C(=O)NCCC(N)=O (Ac-FG[Pro(cis-4-guanidino)]KKR[Pro(cis-4-guanidino)]Q[Pro(cis-4-guanidino)]R[Pro(cis-4-guanidino)][βAla]-NH2)	1910 nM	29.4 µM (≈ 48.4 µg/mL)	92 nM	5.59 µM (≈ 9.21 µg/mL)	223 nM	27.7 µM (≈ 45.7 µg/mL)	7440 nM	53.9 µM (≈ 88.8 µg/mL)	143 nM	15.1 µM (≈ 24.9 µg/mL)	63 nM	26 µM (≈ 42.8 µg/mL)	≥ 80%	–	–	–	–
CC(=O)N[C@@H](Cc1ccccc1)C(=O)NCC(=O)N[C@H]1C[C@@H](C(=O)N[C@@H](CCCCN)C(=O)N[C@@H](CCCCN)C(=O)N[C@@H](CCCNC(=N)N)C(=O)N[C@H]2C[C@@H](C(=O)N[C@@H](CCC(N)=O)C(=O)N[C@@H](CCCNC(=N)N)C(=O)N[C@@H](CCCNC(=N)N)C(=O)N[C@H]3C[C@@H](C(=O)NCCC(N)=O)N(CCCN)C3)N(CCCN)C2)N(CCCN)C1 (Ac-FG[X1]KKR[X1]QRR[X1][βAla]-NH2)	2240 nM	26.3 µM (≈ 44.6 µg/mL)	10.6 nM	3.02 µM (≈ 5.12 µg/mL)	16.5 nM	3.52 µM (≈ 5.97 µg/mL)	4500 nM	43 µM (≈ 72.9 µg/mL)	12.4 nM	4.16 µM (≈ 7.05 µg/mL)	8.2 nM	2.32 µM (≈ 3.93 µg/mL)	≥ 80%	12.4 nM	4.65 µM (≈ 7.88 µg/mL)	33 nM	7.25 µM (≈ 12.3 µg/mL)
CC1(C)S[C@@H]2[C@H](NC(=O)[C@H](N)c3ccccc3)C(=O)N2[C@H]1C(=O)O [AMPICILLIN]	–	–	100 nM	2.8 µM (≈ 0.978 µg/mL)	146 nM	4.17 µM (≈ 1.46 µg/mL)	–	–	1000 nM	29.5 µM (≈ 10.3 µg/mL)	436 nM	12.5 µM (≈ 4.37 µg/mL)	–	–	–	–	–
NC[C@H]1O[C@H](O[C@H]2[C@H](O)[C@@H](O[C@H]3O[C@H](CO)[C@@H](O)[C@H](N)[C@H]3O)[C@H](N)C[C@@H]2N)[C@H](O)[C@@H](O)[C@@H]1O [KANAMYCIN]	–	–	300 nM	> 61.9 µM	162 nM	3.3 µM (≈ 1.6 µg/mL)	–	–	135 nM	2.8 µM (≈ 1.36 µg/mL)	49 nM	1.01 µM (≈ 0.489 µg/mL)	–	–	–	–	–
NC(=O)c1cnccn1 [PYRAZINAMIDE]	–	> 100 µM	–	–	–	–	–	> 100 µM	–	–	–	–	–	–	–	–	–
CO[C@H]1/C=C/O[C@@]2(C)Oc3c(C)c(O)c4c(O)c(c(/C=N/N5CCN(C)CC5)c(O)c4c3C2=O)NC(=O)/C(C)=C\C=C\[C@H](C)[C@H](O)[C@@H](C)[C@@H](O)[C@@H](C)[C@H](OC(C)=O)[C@@H]1C [RIFAMPIN]	–	0.91 µM (≈ 0.749 µg/mL)	–	–	–	–	–	0.97 µM (≈ 0.798 µg/mL)	–	–	–	–	–	–	–	–	–
